Numbers after ± are expanded uncertainties.
Conditions: 101.33 kPa, Liquid; for speed of sound: Sing-around technique in a fixed-path interferometer; for mass density: Vibrating tube method

Row | speed of sound (288.15 K) [m/s] | mass density (288.15 K) [kg/m3] | speed of sound (293.15 K) [m/s] | mass density (293.15 K) [kg/m3] | speed of sound (298.15 K) [m/s] | mass density (298.15 K) [kg/m3] | speed of sound (303.15 K) [m/s] | mass density (303.15 K) [kg/m3] | speed of sound (308.15 K) [m/s] | mass density (308.15 K) [kg/m3] | speed of sound (313.15 K) [m/s] | mass density (313.15 K) [kg/m3] | speed of sound (318.15 K) [m/s] | mass density (318.15 K) [kg/m3] | Structure (SMILES)
1 | 1678.6 ± 3 | 1264.08 ± 1.4 | 1644.2 ± 3 | 1260.52 ± 1.4 | 1617.5 ± 3 | 1256.87 ± 1.4 | 1596.4 ± 2.9 | 1253.05 ± 1.4 | 1578.9 ± 2.9 | 1249.57 ± 1.4 | 1563.7 ± 2.9 | 1246.17 ± 1.4 | 1550.2 ± 2.9 | 1242.76 ± 1.4 | CCCCCn1cc[n+](C)c1.[Br-] [1-pentyl-3-methylimidazolium bromide]
2 | 1668.6 ± 2.2 | 1199.9 ± 0.15 | 1654.9 ± 2.1 | 1196.72 ± 0.15 | 1641.4 ± 2.1 | 1193.34 ± 0.15 | 1628.7 ± 2.1 | 1189.92 ± 0.15 | 1616.9 ± 2.1 | 1186.52 ± 0.15 | 1605.1 ± 2.1 | 1183.17 ± 0.15 | 1593.9 ± 2.1 | 1179.54 ± 0.15 | CCCCn1cc[n+](C)c1C.F[B-](F)(F)F [1-butyl-2,3-dimethylimidazolium tetrafluoroborate]
3 | 1677.5 ± 2.2 | – | 1665.6 ± 2.2 | 1113.35 ± 0.16 | 1653.9 ± 2.2 | – | 1642.2 ± 2.2 | 1106.33 ± 0.16 | 1630.6 ± 2.2 | – | 1618.9 ± 2.2 | 1099.26 ± 0.16 | 1607.3 ± 2.2 | – | OCCO [1,2-ethanediol]
4 | 1565.2 ± 2.9 | 1183.92 ± 1.2 | 1552.5 ± 2.9 | 1180.34 ± 1.2 | 1540.2 ± 2.9 | 1176.85 ± 1.2 | 1528.2 ± 2.9 | 1173.35 ± 1.2 | 1516.3 ± 2.9 | 1169.85 ± 1.2 | 1504.6 ± 2.9 | 1166.36 ± 1.2 | 1493.1 ± 2.9 | 1162.85 ± 1.2 | CCCCCn1cc[n+](C)c1.F[B-](F)(F)F [1-methyl-3-pentyl-imidazolium tetrafluoroborate]

From the NIST ThermoML archive (doi:10.1016/j.fluid.2013.08.029)
